In one series the target is T1, human GC-A (Homo sapiens, UniProt P16066).
T1 construct: expressed in transfected cells; host or cells: CHO cells
T1 sequence (P16066 33-1061): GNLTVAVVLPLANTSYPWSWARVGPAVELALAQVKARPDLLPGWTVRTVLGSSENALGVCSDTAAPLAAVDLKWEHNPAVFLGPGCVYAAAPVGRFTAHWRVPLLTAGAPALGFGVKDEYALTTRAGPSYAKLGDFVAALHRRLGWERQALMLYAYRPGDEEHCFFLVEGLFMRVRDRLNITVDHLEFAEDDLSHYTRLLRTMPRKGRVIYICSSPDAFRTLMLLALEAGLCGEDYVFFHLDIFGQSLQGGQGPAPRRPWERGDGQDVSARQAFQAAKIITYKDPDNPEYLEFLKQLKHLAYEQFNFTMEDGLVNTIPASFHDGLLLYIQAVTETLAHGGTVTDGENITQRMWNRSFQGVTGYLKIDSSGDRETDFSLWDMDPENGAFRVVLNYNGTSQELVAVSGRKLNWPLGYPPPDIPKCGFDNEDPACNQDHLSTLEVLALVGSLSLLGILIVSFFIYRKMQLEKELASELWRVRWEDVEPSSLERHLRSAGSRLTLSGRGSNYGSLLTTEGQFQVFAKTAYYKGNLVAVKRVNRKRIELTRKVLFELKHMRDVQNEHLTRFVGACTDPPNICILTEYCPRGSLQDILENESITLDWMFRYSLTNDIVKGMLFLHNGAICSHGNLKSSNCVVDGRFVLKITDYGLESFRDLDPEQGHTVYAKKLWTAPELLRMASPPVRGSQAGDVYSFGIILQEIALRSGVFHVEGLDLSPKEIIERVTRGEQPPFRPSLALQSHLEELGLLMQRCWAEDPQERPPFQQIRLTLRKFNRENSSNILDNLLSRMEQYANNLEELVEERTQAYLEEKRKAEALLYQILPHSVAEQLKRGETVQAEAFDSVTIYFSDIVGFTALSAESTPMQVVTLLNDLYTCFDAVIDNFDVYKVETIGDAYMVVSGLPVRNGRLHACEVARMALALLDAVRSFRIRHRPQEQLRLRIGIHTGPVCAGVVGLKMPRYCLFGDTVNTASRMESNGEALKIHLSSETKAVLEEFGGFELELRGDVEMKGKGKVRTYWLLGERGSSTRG
Put plainly: cGMP elevating activity in CHO/human GC-A cells (Test Example 1). It is filed as cell-based. The gist of the method: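 CHO cells stably expressing human GC-A, pre-incubated 10 min at room temperature in 1.6 mM IBMX/KRB, then exposed to test peptide 15 min in CO2 incubator. Lysate cGMP measured by HTRF. Activity (T/C) scaled so solvent-only = 0 and 1 nM ANP = 1.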

A short description of series [1]: Detection of test substance in rat plasma by LC-MS/MS (Test Example 3). It is filed as in vivo. The note with it: rat plasma, 100 nmol/kg i.v., LC-MS/MS; time at which the test substance was finally detected. The gist of the method:
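Jugular blood drawn before and 15–240 min after dosing; plasma spiked with stable-isotope hANP internal standard and AcOH/water/DMSO solvent, then passed through a 50K filter with the 3K-retained fraction analysed by LC-MS/MS. Value is the last time point at which test substance was detected.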

The text below walks through data of patent publication US10947289B2, “Glyco-modified atrial natriuretic peptide” (priority 2013, dated 2021).

The term EC50 denotes the concentration that produces a half-maximal response.

As to `CC[C@H](C)[C@@H]1NC(=O)[C@H](CCCNC(=N)N)NC(=O)[C@H](CC(=O)O)NC(=O)[C@H](CCSC)NC(=O)[C@H](CCCNC(=N)N)NC(=O)CNC(=O)CNC(=O)[C@H](Cc2ccccc2)NC(=O)[C@@H](NC(=O)[C@H](CO)NC(=O)[C@H](CO)NC(=O)[C@H](CCCNC(=N)N)NC(=O)[C@H](CCCNC(=N)N)NC(=O)[C@H](CC(C)C)NC(=O)[C@H](CO)NC(=O)CNC(=O)[C@H](CSC2CC(=O)N(CCC(=O)NCCO[C@@H]3O[C@H](CO)[C@@H](O[C@@H]4O[C@H](CO)[C@@H](O[C@@H]5O[C@H](CO[C@H]6O[C@H](CO)[C@@H](O)[C@H](O)[C@@H]6O[C@@H]6O[C@H](CO)[C@@H](O[C@@H]7O[C@H](CO[C@]8(C(=O)O)C[C@H](O)[C@@H](NC(C)=O)[C@H]([C@H](O)[C@H](O)CO)O8)[C@H](O)[C@H](O)[C@H]7O)[C@H](O)[C@H]6NC(C)=O)[C@@H](O)[C@H](O[C@H]6O[C@H](CO)[C@@H](O)[C@H](O)[C@@H]6O[C@@H]6O[C@H](CO)[C@@H](O[C@@H]7O[C@H](CO[C@]8(C(=O)O)C[C@H](O)[C@@H](NC(C)=O)[C@H]([C@H](O)[C@H](O)CO)O8)[C@H](O)[C@H](O)[C@H]7O)[C@H](O)[C@H]6NC(C)=O)[C@@H]5O)[C@H](O)[C@H]4NC(C)=O)[C@H](O)[C@H]3NC(C)=O)C2=O)NC(=O)CNC(=O)[C@H](CSC2CC(=O)N(CCC(=O)NCCO[C@@H]3O[C@H](CO)[C@@H](O[C@@H]4O[C@H](CO)[C@@H](O[C@@H]5O[C@H](CO[C@H]6O[C@H](CO)[C@@H](O)[C@H](O)[C@@H]6O[C@@H]6O[C@H](CO)[C@@H](O[C@@H]7O[C@H](CO[C@]8(C(=O)O)C[C@H](O)[C@@H](NC(C)=O)[C@H]([C@H](O)[C@H](O)CO)O8)[C@H](O)[C@H](O)[C@H]7O)[C@H](O)[C@H]6NC(C)=O)[C@@H](O)[C@H](O[C@H]6O[C@H](CO)[C@@H](O)[C@H](O)[C@@H]6O[C@@H]6O[C@H](CO)[C@@H](O[C@@H]7O[C@H](CO[C@]8(C(=O)O)C[C@H](O)[C@@H](NC(C)=O)[C@H]([C@H](O)[C@H](O)CO)O8)[C@H](O)[C@H](O)[C@H]7O)[C@H](O)[C@H]6NC(C)=O)[C@@H]5O)[C@H](O)[C@H]4NC(C)=O)[C@H](O)[C@H]3NC(C)=O)C2=O)NC(=O)CNC(=O)[C@H](CSC2CC(=O)N(CCC(=O)NCCO[C@@H]3O[C@H](CO)[C@@H](O[C@@H]4O[C@H](CO)[C@@H](O[C@@H]5O[C@H](CO[C@H]6O[C@H](CO)[C@@H](O)[C@H](O)[C@@H]6O[C@@H]6O[C@H](CO)[C@@H](O[C@@H]7O[C@H](CO[C@]8(C(=O)O)C[C@H](O)[C@@H](NC(C)=O)[C@H]([C@H](O)[C@H](O)CO)O8)[C@H](O)[C@H](O)[C@H]7O)[C@H](O)[C@H]6NC(C)=O)[C@@H](O)[C@H](O[C@H]6O[C@H](CO)[C@@H](O)[C@H](O)[C@@H]6O[C@@H]6O[C@H](CO)[C@@H](O[C@@H]7O[C@H](CO[C@]8(C(=O)O)C[C@H](O)[C@@H](NC(C)=O)[C@H]([C@H](O)[C@H](O)CO)O8)[C@H](O)[C@H](O)[C@H]7O)[C@H](O)[C@H]6NC(C)=O)[C@@H]5O)[C@H](O)[C@H]4NC(C)=O)[C@H](O)[C@H]3NC(C)=O)C2=O)NC(C)=O)CSSC[C@@H](C(=O)N[C@@H](CC(N)=O)C(=O)N[C@@H](CO)C(=O)N[C@@H](Cc2ccccc2)C(=O)N[C@@H](CCCNC(=N)N)C(=O)N[C@@H](Cc2ccc(O)cc2)C(=O)O)NC(=O)CNC(=O)[C@H](CC(C)C)NC(=O)CNC(=O)[C@H](CO)NC(=O)[C@H](CCC(N)=O)NC(=O)[C@H](C)NC(=O)CNC1=O` (stereo partly drawn) [Compound 2-15, [(SG-)Cys-Gly]3-hANP(1-28)], the response on human GC-A was half-maximal at 3.1 nM (EC50). Also, the “Maximum time of detection after administration” value (“Maximum time of detection” below) in series [1] came to 1.5 h.

On to `CC[C@H](C)[C@@H]1NC(=O)[C@H](CCCNC(=N)N)NC(=O)[C@H](CC(=O)O)NC(=O)[C@H](CCSC)NC(=O)[C@H](CCCNC(=N)N)NC(=O)CNC(=O)CNC(=O)[C@H](Cc2ccccc2)NC(=O)[C@@H](NC(=O)[C@H](CO)NC(=O)[C@H](CO)NC(=O)[C@H](CCCNC(=N)N)NC(=O)[C@H](CCCNC(=N)N)NC(=O)[C@H](CC(C)C)NC(=O)[C@H](CO)NC(=O)[C@H](CC(=O)N[C@@H]2O[C@H](CO)[C@@H](O[C@@H]3O[C@H](CO)[C@@H](O[C@@H]4O[C@H](CO[C@H]5O[C@H](CO)[C@@H](O)[C@H](O)[C@@H]5O[C@@H]5O[C@H](CO)[C@@H](O[C@@H]6O[C@H](CO[C@]7(C(=O)O)C[C@H](O)[C@@H](NC(C)=O)[C@H]([C@H](O)[C@H](O)CO)O7)[C@H](O)[C@H](O)[C@H]6O)[C@H](O)[C@H]5NC(C)=O)[C@@H](O)[C@H](O[C@H]5O[C@H](CO)[C@@H](O)[C@H](O)[C@@H]5O[C@@H]5O[C@H](CO)[C@@H](O[C@@H]6O[C@H](CO[C@]7(C(=O)O)C[C@H](O)[C@@H](NC(C)=O)[C@H]([C@H](O)[C@H](O)CO)O7)[C@H](O)[C@H](O)[C@H]6O)[C@H](O)[C@H]5NC(C)=O)[C@@H]4O)[C@H](O)[C@H]3NC(C)=O)[C@H](O)[C@H]2NC(C)=O)NC(=O)CCOCCOCCOCCOCCNC(=O)CO[C@@H]2O[C@H](CO)[C@@H](O[C@@H]3O[C@H](CO)[C@@H](O[C@@H]4O[C@H](CO[C@H]5O[C@H](CO)[C@@H](O)[C@H](O)[C@@H]5O[C@@H]5O[C@H](CO)[C@@H](O[C@@H]6O[C@H](CO[C@]7(C(=O)O)C[C@H](O)[C@@H](NC(C)=O)[C@H]([C@H](O)[C@H](O)CO)O7)[C@H](O)[C@H](O)[C@H]6O)[C@H](O)[C@H]5NC(C)=O)[C@@H](O)[C@H](O[C@H]5O[C@H](CO)[C@@H](O)[C@H](O)[C@@H]5O[C@@H]5O[C@H](CO)[C@@H](O[C@@H]6O[C@H](CO[C@]7(C(=O)O)C[C@H](O)[C@@H](NC(C)=O)[C@H]([C@H](O)[C@H](O)CO)O7)[C@H](O)[C@H](O)[C@H]6O)[C@H](O)[C@H]5NC(C)=O)[C@@H]4O)[C@H](O)[C@H]3NC(C)=O)[C@H](O)[C@H]2NC(C)=O)CSSC[C@@H](C(=O)N[C@@H](CC(N)=O)C(=O)N[C@@H](CO)C(=O)N[C@@H](Cc2ccccc2)C(=O)N[C@@H](CCCNC(=N)N)C(=O)N[C@@H](Cc2ccc(O)cc2)C(=O)O)NC(=O)CNC(=O)[C@H](CC(C)C)NC(=O)CNC(=O)[C@H](CO)NC(=O)[C@H](CCC(N)=O)NC(=O)[C@H](C)NC(=O)CNC1=O` [Compound 2-16, SG-PEG(3)-(SG-)Asn-hANP(1-28)], for which the EC50 at human GC-A was 0.98 nM. For the same compound, in series [1], the “Maximum time of detection” value was found to be 2 h.

Turning to `CC[C@H](C)[C@@H]1NC(=O)[C@H](CCCNC(=N)N)NC(=O)[C@H](CC(=O)O)NC(=O)[C@H](CCSC)NC(=O)[C@H](CCCNC(=N)N)NC(=O)CNC(=O)CNC(=O)[C@H](Cc2ccccc2)NC(=O)[C@@H](NC(=O)[C@H](CO)NC(=O)[C@H](CO)NC(=O)[C@H](CCCNC(=N)N)NC(=O)[C@H](CCCNC(=N)N)NC(=O)[C@H](CC(C)C)NC(=O)[C@H](CO)NC(=O)CCSCC(=O)NCCO[C@@H]2O[C@H](CO)[C@@H](O[C@@H]3O[C@H](CO)[C@@H](O[C@@H]4O[C@H](CO[C@H]5O[C@H](CO)[C@@H](O)[C@H](O)[C@@H]5O[C@@H]5O[C@H](CO)[C@@H](O[C@@H]6O[C@H](CO[C@]7(C(=O)O)C[C@H](O)[C@@H](NC(C)=O)[C@H]([C@H](O)[C@H](O)CO)O7)[C@H](O)[C@H](O)[C@H]6O)[C@H](O)[C@H]5NC(C)=O)[C@@H](O)[C@H](O[C@H]5O[C@H](CO)[C@@H](O)[C@H](O)[C@@H]5O[C@@H]5O[C@H](CO)[C@@H](O[C@@H]6O[C@H](CO[C@]7(C(=O)O)C[C@H](O)[C@@H](NC(C)=O)[C@H]([C@H](O)[C@H](O)CO)O7)[C@H](O)[C@H](O)[C@H]6O)[C@H](O)[C@H]5NC(C)=O)[C@@H]4O)[C@H](O)[C@H]3NC(C)=O)[C@H](O)[C@H]2NC(C)=O)CSSC[C@@H](C(=O)N[C@@H](CC(N)=O)C(=O)N[C@@H](CO)C(=O)N[C@@H](Cc2ccccc2)C(=O)N[C@@H](CCCNC(=N)N)C(=O)N[C@@H](Cc2ccc(O)cc2)C(=O)O)NC(=O)CNC(=O)[C@H](CC(C)C)NC(=O)CNC(=O)[C@H](CO)NC(=O)[C@H](CCC(N)=O)NC(=O)[C@H](C)NC(=O)CNC1=O` [Compound 2-25, SG-thioacetamide-hANP(1-28)], on human GC-A, the EC50 turned out to be 0.054 nM. In series [1], the “Maximum time of detection” value was 2 h.
